Laboratory results as given in patent publication US9295730B2, “Conjugated molecules comprising a peptide derived from the CD4 receptor coupled to a polyanion for the treatment of AIDS” (Institut Pasteur, priority 2008, dated 2016).
Ends that are not written are not given here.

Legend:
Format in all cases: cell-based
[1] = tested on: X4-tropic HIV-1-LAI; test: Antiviral assay, PHA-P-activated PBMC infected with HIV-1-LAI, RT activity in supernatants; settings: Table 7, VIH-1-LAI; for EC50: read-out: ED50 (the source's name)
[2] = tested on: uninfected PHA-P-activated PBMC; test: Cytotoxicity, MTT assay on day 7
Method: (§1) In parallel, cytotoxicity of the samples was evaluated in uninfected PHA-P-activated PBMC by a methyltetrazolium salt (MTT) assay on day 7. Experiments were performed in triplicate and 50, 70 and 90% effective doses and cytotoxic doses were calculated using SoftMaxPro software.

[3] = tested on: R5-tropic HIV-1/Ba-L; test: Antiviral assay, PHA-P-activated PBMC infected with HIV-1/Ba-L, RT activity in supernatants; settings: Table 7, VIH-1/Ba-L
[4] = Cytotoxicity, MTT assay on day 7; settings: human, uninfected PHA-P-activated PBMC
Method: as §1

| Substance | ED70 [1] | ED90 [1] | EC50 [1] | Cytotoxicity CT50 [2] | Cytotoxicity CT70 [2] | Cytotoxicity CT90 [2] | ED70 [3] | ED90 [3] | EC50 ([3]; read-out: ED50 (the source's name)) | CC50 at 168 h [4] |
| --- | --- | --- | --- | --- | --- | --- | --- | --- | --- | --- |
| 5-aminopentyl[(3-O-benzyl-4-O-(4-methoxybenzyl)-2-O-sulfonato-α-L-idopyranosyluronate)-(1→4)-O-(3-O-benzyl-2-deoxy-2-sulfoamino-6-O-sulfonato-α-D-glucopyranoside)-(1→4)-O-(3-O-benzyl-2-O-sulfonato-α-L-idopyranosyluronate)]-(1→4)-O-3-O-benzyl-2-deoxy-2-sulfoamino-6-O-sulfonato-α-D-glucopyranoside heptasodium salt [HS4Bz] | >1000 nM | >1000 nM | > 1000 nM | >1000 nM | >1000 nM | >1000 nM |  |  |  |  |
| MEDLEETLFEEFENYSYDLDYYSLESC [GPR1] | >1000 nM | >1000 nM | > 1000 nM |  | >1000 nM | >1000 nM | >1000 nM | >1000 nM | > 1000 nM | > 1000 nM |
